Experimental data taken from US11384099B2, “Pyrazolopyridinone compounds” (Janssen Pharmaceutica NV, priority 2017, dated 2022).

Columns and labels:
[1] = biological target: T1, human FGFR3 V555M enzyme (cytoplasmic domain carrying V555M mutation) (Homo sapiens, UniProt P22607, V555M); assay: FGFR3 V555M mobility shift assay (enzymatic assay, Caliper); format: biochemical; details: 30 μM ATP, 45 minutes at 30° C.
T1 construct: cytoplasmic domain carrying V555M mutation, from Carna Biosciences; purchased Carna Biosciences
T1 sequence (P22607 397-806 V555M limits assumed): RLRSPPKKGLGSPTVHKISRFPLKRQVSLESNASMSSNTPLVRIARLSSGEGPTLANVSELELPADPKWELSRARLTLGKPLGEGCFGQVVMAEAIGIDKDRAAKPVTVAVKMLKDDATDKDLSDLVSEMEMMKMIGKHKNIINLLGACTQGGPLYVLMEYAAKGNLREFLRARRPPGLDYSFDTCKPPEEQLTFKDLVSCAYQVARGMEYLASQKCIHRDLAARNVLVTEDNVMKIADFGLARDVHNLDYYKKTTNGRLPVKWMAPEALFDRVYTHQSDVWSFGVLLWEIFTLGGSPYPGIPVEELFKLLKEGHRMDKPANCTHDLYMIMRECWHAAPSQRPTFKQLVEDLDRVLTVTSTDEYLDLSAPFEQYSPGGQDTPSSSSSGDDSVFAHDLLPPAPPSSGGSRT
Method: FGFR3 V555M Mobility Shift Assay (Enzymatic Assay)
(§1) In a final reaction volume of 25 μL, 0.04 ng/μL human FGFR3 V555M enzyme (cytoplasmic domain carrying V555M mutation, from Carna Biosciences) was incubated with 30 μM ATP, 1 μM FL-peptide 30 substrate and 250 nL of testing compound (1% DMSO final) in assay buffer (100 mM HEPES pH 7.4, 10 mM MgCl2, 0.003% Brij35, 1 mM DTT). After incubation for 45 minutes at 30° C. the reaction was stopped with 10 μL of 0.5M EDTA pH 8.0, and then L of reaction mixture was transferred to reading plate and measured on Caliper EZ reader II.

[2] = biological target: T2, human FGFR3 wild type enzyme (cytoplasmic domain) (Homo sapiens, UniProt P22607); assay: FGFR3 wild type mobility shift assay (enzymatic assay, Caliper); format: biochemical; details: 75 μM ATP, 50 minutes at 30° C.
T2 construct: human FGFR3 wild type enzyme (cytoplasmic domain, from Cama Biosciences); purchased Carna Biosciences
T2 sequence (P22607 397-806 limits assumed): as the sequence (P22607 397-806 V555M limits assumed) above, with M159V counted along it
Method: FGFR3 Wild Type Mobility Shift Assay (Enzymatic Assay)
as §1, with “FGFR3 wild type” for “FGFR3 V555M”, “(cytoplasmic domain,” for “(cytoplasmic domain carrying V555M mutation,”, “from Cama” for “from Carna”, “with 75” for “with 30”, “for 50” for “for 45”

| Structure (SMILES) | IC50 [1] | IC50 [2] |
| --- | --- | --- |
| COCC(Nc1c(-c2nc3ccc(OC)cc3[nH]2)c(=O)[nH]c2cn(C)nc12)c1ncccn1 (single isomer, unassigned) [Compound 13, (R*)-7-((2-methoxy-1-(pyrimidin-2-yl)ethyl)amino)-6-(6-methoxy-1H-benzo[d]imidazol-2-yl)-2-methyl-2H-pyrazolo[4,3-b]pyridin-5 (4H)-one] | 375 nM | 1830 nM |
| COCC(Nc1c(-c2nc3cnc(OC)cc3[nH]2)c(=O)[nH]c2cn(C)nc12)c1ncccn1 (single isomer, unassigned) [Compound 19, (S*)-7-((2-methoxy-1-(pyrimidin-2-yl)ethyl)amino)-6-(6-methoxy-1H-imidazo[4,5-c]-pyridin-2-yl)-2-methyl-2H-pyrazolo[4,3-b]pyridin-5 (4H)-one] | 243 nM | 1240 nM |
| COCC(Nc1c(-c2nc3cc(OC)c(OC)cc3[nH]2)c(=O)[nH]c2cn(C)nc12)c1ncccn1 (single isomer, unassigned) [Compound 26, (R*)-6-(5,6-dimethoxy-1H-benzo[d]imidazol-2-yl)-7-((2-methoxy-1-(pyrimidin-2-yl)-ethyl)amino)-2-methyl-2H-pyrazolo[4,3-b]pyridin-5 (4H)-one] | 218 nM | 790 nM |
| COCCOc1cc2[nH]c(-c3c(NC(c4ncccn4)C(C)C)c4nn(C)cc4[nH]c3=O)nc2cc1OC (single isomer, unassigned) [Compound 35, (R*)-6-(5-methoxy-6-(2-methoxyethoxy)-1H-benzo[d]imidazol-2-yl)-2-methyl-7-((2-methyl-1-(pyrimidin-2-yl)propyl)amino)-2H-pyrazolo[4,3-b]pyridin-5 (4H)-one] | 80.5 nM | 298 nM |
| COc1cnc2nc(-c3c(NC(c4ncccn4)C(C)C)c4nn(C)cc4[nH]c3=O)[nH]c2c1 (single isomer, unassigned) [Compound 39, (R*)-6-(6-methoxy-1H-imidazo[4,5-b]pyridin-2-yl)-2-methyl-7-((2-methyl-1-(pyrimidin-2-yl)propyl)amino)-2,4-dihydro-5H-pyrazolo[4,3-b]pyridin-5-one] | 48.6 nM | 263 nM |

Now those with a lower IC50 [1], led by results:

| IC50 [1] | IC50 [2] | Structure (SMILES) |
| --- | --- | --- |
| 11.8 nM | 71.9 nM | CCC(Nc1c(-c2nc3cnc(N(C)C)cc3[nH]2)c(=O)[nH]c2cn(C)nc12)c1ncccn1 (single isomer, unassigned) [Compound 14, (S*)-6-(6-(dimethylamino)-1H-imidazo[4,5-c]pyridin-2-yl)-2-methyl-7-((1-(pyrimidin-2-yl)propyl)amino)-2H-pyrazolo[4,3-b]pyridin-5 (4H)-one] |
| 4.67 nM | 22.4 nM | COCC(Nc1c(-c2nc3cnc(OC)cc3[nH]2)c(=O)[nH]c2cn(C)nc12)c1ncccn1 (single isomer, unassigned) [Compound 20, (R*)-7-((2-methoxy-1-(pyrimidin-2-yl)ethyl)amino)-6-(6-methoxy-1H-imidazo[4,5-c]-pyridin-2-yl)-2-methyl-2H-pyrazolo[4,3-b]pyridin-5 (4H)-one] |
| 4.16 nM | 23.7 nM | CCn1cc2[nH]c(=O)c(-c3nc4ccc(OC)cc4[nH]3)c(N[C@@H](C)c3cocn3)c2n1 (single isomer, unassigned) [Compound 33, (S*)-2-ethyl-6-(6-methoxy-1H-benzo[d]imidazol-2-yl)-7-((1-(oxazol-4-yl)ethyl)amino)-2H-pyrazolo[4,3-b]125yridine-5 (4H)-one] |
| 43.2 nM | 138 nM | CCC(Nc1c(-c2nc3cc(OC)c(OC)cc3[nH]2)c(=O)[nH]c2cn(C)nc12)c1ncccn1 (single isomer, unassigned) [Compound 43, (R*)-6-(5,6-dimethoxy-1H-benzo[d]imidazol-2-yl)-2-methyl-7-((1-(pyrimidin-2-yl)-propyl)amino)-2H-pyrazolo[4,3-b]pyridin-5 (4H)-one] |
